Where no end group is shown, it is not given here.
Columns and labels:
PAR-2Mut2 receptor [1] = molecular target: T1, PAR-2Mut2 receptor (Homo sapiens, UniProt P55085); assay: Beta-lactamase reporter assay, CHO-NFAT-PAR-2Mut2 cells; assay type: cell-based; settings: FIG. 6
T1 construct: indeed comprising amino acids 43 to 397 of the precursor of human PAR-2; expressed in transfected cells
T1 sequence (P55085 43-397): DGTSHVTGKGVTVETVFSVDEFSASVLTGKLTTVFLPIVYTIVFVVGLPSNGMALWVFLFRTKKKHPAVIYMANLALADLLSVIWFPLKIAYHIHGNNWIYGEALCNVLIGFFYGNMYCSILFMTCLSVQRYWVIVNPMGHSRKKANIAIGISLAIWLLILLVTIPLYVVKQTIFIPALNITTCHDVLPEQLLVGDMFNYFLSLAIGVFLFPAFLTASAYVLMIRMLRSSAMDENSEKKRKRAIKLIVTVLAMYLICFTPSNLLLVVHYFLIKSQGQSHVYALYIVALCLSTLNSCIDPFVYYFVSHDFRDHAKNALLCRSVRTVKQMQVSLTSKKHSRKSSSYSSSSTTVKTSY
Experimental: In a 96-well or 384-well microplate, […] the wild-type PAR-2 receptor (CHO-NFAT-PAR-2WT) or the CHO-NFAT cells expressing the PAR-2Mut2 receptor (CHO-NFAT-PAR-2mut2), in a proportion of 4×10^4 for a 96-well plate or 1×10^4 for a 384-well plate, for 4 hours, at 37° C., in an atmosphere containing 5% CO2 and in a modified Dulbecco medium (Lifetech, Gaithersburg, Md.) containing 100 μg/ml of gentamycin. The cells were placed in the dark for 1 hour at ambient temperature with 12 μM of CCF4-AM (Aurora Biosciences, San Diego, Calif.). The fluorescence was measured with a Fluostar fluorimeter (BMG, Germany). The excitation occurs at 405 nm and the emission is recorded at both 460 and 535 nm. The fluorescence ratio (460 nm/535 nm) is estimated after elimination of the background noise (medium without cells). The ED50 is considered to be the concentration of SLIGRL-NH2 necessary to achieve 50% of the maximum fluorescence ratio.
The CHO-NFAT-beta-lactamase cells stimulated with SLIGRL-NH2 in the medium mentioned above (4×10^4 cells/well) were used as control. All the reagents were added with the activating agent (chemical or referenced compounds), unless otherwise indicated.

CHO-NFAT cells [2] = assay: Beta-lactamase reporter assay, CHO-NFAT control cells; assay type: cell-based
PAR-2Mut2 receptor [3] = molecular target: T1, PAR-2Mut2 receptor; assay: Calcium release direct measurement (FLIPR), CHO-NFAT-PAR-2Mut2 cells; assay type: cell-based
Experimental: (§1) The cells used for these tests were: CHO-NFAT-PAR-2-MUT2, CHO-NFAT-PAR-2-MUT3, CHO-NFAT-PAR2-WT and CHO-NFAT-WT.
(§2) The day before the experiment, the cells, were seeded into 384 well-plate in a medium DMEM glutamax (ref: 61965-026 Invitrogen, fetal calf serum 10% (ref: 10270106 Invitrogen), gentamycin 50 mg/ml 0.25% (ref: 15750-037 Invitrogen) at 25000 cells/well/50 μL.
(§3) The day of the experiment, the medium was discarded (by turning the plate). 50 μl of HBSS (Invitrogen réf: 14025.050), hepes (Invitrogen ref: 15630-05620 mM) were added to each well, HBSS was then discarded by turning the plate. 10 ml of Calcium kit loading solution and 10 ml HBSS, hepes 20 mM and 200 μl probenecid 250 μM were mixed and then 30 μl of this solution was added per well; plates were then incubated during 2 hours at 37° C. 4% CO2. 1.2 μl of a 250 μM compound in 25% DMSO to be tested and 3.8 μl HBSS, hepes 20 mM were added (on the Minitrak Va., Packard), the plates are transferred to the FLIPR and 25 μl 7.2 μM SLIGRL were added.
(§4) The dye is excited with the 488 nm excitation line of the argon laser and emits at 550 nm. The FLIPR quantifies the release of intracellular calcium in real time, the fluorescence is measured during 90 seconds.

PAR-2Mut3 receptor = molecular target: T2, PAR-2Mut3 receptor (Homo sapiens, UniProt P55085); assay: Calcium release direct measurement (FLIPR), CHO-NFAT-PAR2-Mut3 cells; assay type: cell-based
T2 construct: indeed comprising amino acids 57 to 397 of the precursor of human PAR-2; expressed in transfected cells
T2 sequence (P55085 57-397): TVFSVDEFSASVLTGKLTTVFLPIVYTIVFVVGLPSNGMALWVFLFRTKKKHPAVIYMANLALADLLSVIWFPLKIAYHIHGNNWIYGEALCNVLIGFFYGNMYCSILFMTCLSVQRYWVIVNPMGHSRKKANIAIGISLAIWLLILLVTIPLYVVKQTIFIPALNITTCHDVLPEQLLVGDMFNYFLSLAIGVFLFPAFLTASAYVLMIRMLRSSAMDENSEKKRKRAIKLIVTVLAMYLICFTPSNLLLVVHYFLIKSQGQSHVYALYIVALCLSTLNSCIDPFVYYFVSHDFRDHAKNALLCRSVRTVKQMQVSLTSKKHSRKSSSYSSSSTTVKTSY
Experimental: as §1, §2, §3, §4

CHO-NFAT cells [4] = assay: Calcium release direct measurement (FLIPR), CHO-NFAT control cells; assay type: cell-based
Experimental: as §1
The day before the experiment, cells were seeded into 384 well-plate in a complete medium at 25000 cells/well/50 μL.
The day after, the medium was discarded (by turning the plate). 50 μl of HBSS, hepes 20 mM were added to each well, HBSS was then discarded by turning the plate. This was done twice.
10 ml of Calcium kit loading solution (solution prepared as described above) and 10 ml HBSS, hepes 20 mM and 200 μl probenecid 250 μM were mixed, and 30 μl of this solution per well were added, plates were incubated during 2 hours at 37° C. 5% CO2.
1.2 μl of compound to be tested (250 μM, 25% DMSO) and 3.8 μl HBSS, hepes 20 mM were added (on the Minitrak Va.). 25 μl 72 nM Trypsin was then added using the FLIPR.
The fluorescence was measured on the FLIPR as specified above.

[5] = molecular target: T3, wild-type PAR-2 receptor expressed on CHO-NFAT cells (CHO-NFAT-PAR-2WT) (human, UniProt P55085 37-397); assay: cell-based or functional assay
T3 sequence (looked up): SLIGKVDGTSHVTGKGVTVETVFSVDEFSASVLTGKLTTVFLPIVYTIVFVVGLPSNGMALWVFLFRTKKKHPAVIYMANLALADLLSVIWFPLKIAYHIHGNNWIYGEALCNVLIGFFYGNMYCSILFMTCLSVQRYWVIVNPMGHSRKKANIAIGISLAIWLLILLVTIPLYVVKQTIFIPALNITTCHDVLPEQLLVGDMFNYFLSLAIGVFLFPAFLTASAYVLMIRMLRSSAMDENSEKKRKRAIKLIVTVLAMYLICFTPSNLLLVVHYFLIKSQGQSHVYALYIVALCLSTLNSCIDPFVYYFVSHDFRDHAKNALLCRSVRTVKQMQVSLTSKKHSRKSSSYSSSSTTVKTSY

[6] = molecular target: T4, truncated PAR-2 receptor PAR-2Mut2 expressed on CHO-NFAT cells (CHO-NFAT-PAR-2Mut2) (human, UniProt P55085 43-397); assay: cell-based or functional assay
T4 sequence: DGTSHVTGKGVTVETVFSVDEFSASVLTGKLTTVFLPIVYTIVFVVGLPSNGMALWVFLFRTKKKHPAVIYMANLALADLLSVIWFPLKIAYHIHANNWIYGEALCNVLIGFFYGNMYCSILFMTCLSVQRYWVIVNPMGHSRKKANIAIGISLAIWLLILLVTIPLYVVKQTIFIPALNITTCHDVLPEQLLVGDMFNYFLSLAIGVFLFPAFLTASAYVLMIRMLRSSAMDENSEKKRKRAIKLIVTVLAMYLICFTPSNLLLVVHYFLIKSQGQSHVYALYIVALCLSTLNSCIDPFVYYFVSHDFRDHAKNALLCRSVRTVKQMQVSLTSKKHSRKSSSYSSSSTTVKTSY

For trypsin, the “Activation of cells by trypsin (beta-lactamase fluorescence)” value (PAR-2Mut2 receptor [1]) was “not activated”, the “Activation of cells by trypsin (beta-lactamase fluorescence)” value (CHO-NFAT cells [2]) was “not activated” and the “Activation of cells by trypsin (FLIPR calcium release)” value (from here on “Activation … (FLIPR calcium release)”) (PAR-2Mut2 receptor [3]; CHO-NFAT-PAR2-MUT2 cells) was “not activated”. For the same molecule, the “Activation … (FLIPR calcium release)” value (PAR-2Mut3 receptor) was “not activated” and the “Activation … (FLIPR calcium release)” value (CHO-NFAT cells [4]) was “not activated”.

With “SLIGRL [SLIGRL-NH2, synthetic ligand (Neosystème)]” the “Fluorescence after stimulation, compared with CHO-PAR2-WT cells” value (PAR-2Mut2 receptor [3]; CHO-NFAT-PAR-2Mut2 cells, SLIGRL-NH2 0.1 μM to 100 μM) was “higher”.

B1: SLIGRL-NH2 synthetic ligand (peptide)
peptide: SLIGRL-NH2
B1 was tested, and the “ED50 (beta-lactamase reporter, fluorescence ratio 460 nm/535 nM)” value [5] was 10 µM and the “ED50 (beta-lactamase reporter, fluorescence ratio 460 nm/535 nM)” value [6] was 0.2 µM.

— patent US20040082773A1, “Modified PAR receptors, their preparation and their uses for selecting compounds which modulate PAR activity” (Pfizer Inc., priority 2002, published 2004)
